From ChEMBL document CHEMBL5346865, “Male contraceptive development: A medicinal chemistry perspective” (Eur J Med Chem, 2022) come the findings set out here.

For one data set, the species on record is Mus musculus. In words: Contraceptive effect in mouse model of contraception. It counts as functional.
Data set [1] can be described thus: Inhibition of sperm motility in human Spermatozoa incubated for 1 to 2 hrs by computer assisted sperm analysis. The data set is classed as functional, cell-based.
Data set [2] in a line: Inhibition of sperm motility in human Spermatozoa assessed as remaining progressive sperm motility relative to control. The data set is classed as functional.
Data set [3] can be described thus: Half life in cynomolgus monkey at 1 mg/kg, iv administered as single infusion dose. The data set is classed as ADME, organism-based, Macaca fascicularis. The note with it: in vivo.

SMILES strings stand for the structures. pIC50: −log10 of the molar value.

In the case of `Cc1ccc(C2=CC(C)(C)Oc3ccc(-c4ccc(-c5ccc(C(=O)[O-])cc5)[nH]4)cc32)cc1.[Na+]`, the Activity in the data set filed under Mus musculus is on record as greater than 99%.
In data set [1], `COC(=O)NNc1nc(Nc2ccc(NC(C)=O)c(O)c2)nc(SCC(=O)O)n1` showed a pIC50 of 3.70. Also, the Activity in data set [2] is listed as less than 20%. The half-life in data set [3] was less than 12 min.

A word on the pIC50: it is −log10 of the IC50, conventionally taken in molar units. One may read the half-life as the time in which the quantity being followed falls by half.
